The source of these data is patent US20240139172A1, “PIPERIDINE UREA DERIVATIVES FOR CANCER THERAPY” (NeuroPn Therapeutics, Inc., priority 2022, published 2024).

The series relates to adult zebrafish. Description: Paclitaxel-induced peripheral neuropathy in adult zebrafish (number of stimuli until twitch). In kind it is in vivo. Particulars: 3 μL of 10-μM paclitaxel solution for four consecutive days, FIG. 9. As for the experimental part: Method to evaluate potential of compounds of Formula 1 to reduce or block chemotherapy-induced peripheral neuropathy—Animal (zebrafish) model described below and in literature (Lisse T S et al PNAS 113 (15) E2189-E2198) was used to evaluate potential of compounds of Formula 1 to reduce or block neuronal damage induced by chemotherapeutics.
To induce peripheral neuropathy in adult zebrafish, 3 μL of a 10-μM paclitaxel solution in 0.15% DMSO was administered with a 33 gauge Hamilton Syringe for a zebrafish with average ˜200 mg body weight. Fish were treated with vehicle alone or paclitaxel for four consecutive days (Days 2-5) or paclitaxel with Compound A (10- or 30 ng). Compound A was dosed orally by mixing with the fish feed pellets. Fishes were conditioned to consume three pellets a day. […] To prepare test compound infused pellet, a known quantity of the compound was mixed with the known quantity of the feed powder and were extruded in to 4 mg pellet containing the desired administration dose per pellet. Concentration of test compound dosed per fish were controlled by the number of pellets and the quantity of compound per pellet. […]
To determine the peripheral nerve damage, fish were wrapped in plastic foil until calm, and the distal tail fin was stimulated with an insect pin until twitching of the fish was observed. Number of stimuli until twitch was recorded.

Regarding `CC(=O)O[C@H]1C(=O)[C@@]2(C)[C@H]([C@H](OC(=O)c3ccccc3)[C@]3(O)C[C@H](OC(=O)[C@H](O)[C@@H](NC(=O)c4ccccc4)c4ccccc4)C(C)=C1C3(C)C)[C@]1(OC(C)=O)CO[C@@H]1C[C@@H]2O` [paclitaxel], the “peripheral nerve damage (increase in number of stimuli needed) compared to vehicle alone” value is “significant nerve damage”.
